Tests used:
Assay in all cases: relative viability (nuclei count vs DMSO), 5 days (fraction); higher = more cells survive
[1] = compound: CC1=CC(=NN1)NC2=CC(=NC(=N2)/C=C/C3=CC=CC=C3)N4CCN(CC4)C + N=C(N)NC(=N)NCCc1ccccc1 [Phenformin] (partner 250 µM)
In short: (§1)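 Lung cancer cell lines were pin-tool dosed in 1536-well plates on the day after seeding, with either a lone drug or a fixed anchor-drug dose plus five library-drug doses (not always all listed) in √10 steps. Nuclei were counted on 4× images after 5 days. Relative viability is the ratio of treated-well to vehicle-well nuclei counts, with each value a median of duplicate plates.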

[2] = compound: CC1=CC(=NN1)NC2=CC(=NC(=N2)/C=C/C3=CC=CC=C3)N4CCN(CC4)C + Nc1nc2[nH]cc(CCc3ccc(C(=O)N[C@@H](CCC(=O)O)C(=O)O)cc3)c2c(=O)[nH]1 [Pemetrexed] (partner 0.2 µM)
In short: as §1

[3] = compound: CC1=CC(=NN1)NC2=CC(=NC(=N2)/C=C/C3=CC=CC=C3)N4CCN(CC4)C + O=C(CCCCCCC(=O)Nc1ccccc1)NO [Vorinostat] (partner 1 µM)
In short: as §1

Obatoclax + Palbociclib = compound: COC1=CC(c2cc3ccccc3[nH]2)=N/C1=C\c1[nH]c(C)cc1C [Obatoclax] + CC(=O)c1c(C)c2cnc(Nc3ccc(N4CCNCC4)cn3)nc2n(C2CCCC2)c1=O [Palbociclib] (partner 0.5 µM)
In short: as §1

NCI-H358
relative viability ([1]; first compound 0.08 µM): 0.272 | relative viability ([1]; first compound 0.253 µM): 0.377 | relative viability ([1]; first compound 0.8 µM): 0.229 | relative viability ([1]; first compound 2.53 µM): 0.0644 | relative viability ([1]; first compound 8 µM): 0.0549 | relative viability ([2]; first compound 0.08 µM): 0.163 | relative viability ([2]; first compound 0.253 µM): 0.172 | relative viability ([2]; first compound 0.8 µM): 0.173 | relative viability ([2]; first compound 2.53 µM): 0.128 | relative viability ([2]; first compound 8 µM): 0.0753 | relative viability ([3]; first compound 0.08 µM): 0.587 | relative viability ([3]; first compound 0.253 µM): 0.756 | relative viability ([3]; first compound 0.8 µM): 0.178 | relative viability ([3]; first compound 2.53 µM): 0.116 | relative viability ([3]; first compound 8 µM): 0.0712 | relative viability (Obatoclax + Palbociclib; first compound 0.01 µM): 0.13 | relative viability (Obatoclax + Palbociclib; first compound 0.03162 µM): 0.127 | relative viability (Obatoclax + Palbociclib; first compound 0.1 µM): 0.142 | relative viability (Obatoclax + Palbociclib; first compound 0.3162 µM): 0.114 | relative viability (Obatoclax + Palbociclib; first compound 1 µM): 0.117

NCI-H441
relative viability ([1]; first compound 0.08 µM): 0.909 | relative viability ([1]; first compound 0.253 µM): 0.955 | relative viability ([1]; first compound 0.8 µM): 0.797 | relative viability ([1]; first compound 2.53 µM): 0.192 | relative viability ([1]; first compound 8 µM): 0.156 | relative viability ([2]; first compound 0.08 µM): 0.24 | relative viability ([2]; first compound 0.253 µM): 0.25 | relative viability ([2]; first compound 0.8 µM): 0.273 | relative viability ([2]; first compound 2.53 µM): 0.221 | relative viability ([2]; first compound 8 µM): 0.137 | relative viability ([3]; first compound 0.08 µM): 0.569 | relative viability ([3]; first compound 0.253 µM): 0.768 | relative viability ([3]; first compound 0.8 µM): 0.58 | relative viability ([3]; first compound 2.53 µM): 0.498 | relative viability ([3]; first compound 8 µM): 0.138 | relative viability (Obatoclax + Palbociclib; first compound 0.01 µM): 0.231 | relative viability (Obatoclax + Palbociclib; first compound 0.03162 µM): 0.214 | relative viability (Obatoclax + Palbociclib; first compound 0.1 µM): 0.261 | relative viability (Obatoclax + Palbociclib; first compound 0.3162 µM): 0.167 | relative viability (Obatoclax + Palbociclib; first compound 1 µM): 0.155

NCI-H460
relative viability ([1]; first compound 0.08 µM): 0.552 | relative viability ([1]; first compound 0.253 µM): 0.597 | relative viability ([1]; first compound 0.8 µM): 0.514 | relative viability ([1]; first compound 2.53 µM): 0.0212 | relative viability ([1]; first compound 8 µM): 0.0183 | relative viability ([2]; first compound 0.08 µM): 0.0607 | relative viability ([2]; first compound 0.253 µM): 0.0584 | relative viability ([2]; first compound 0.8 µM): 0.0607 | relative viability ([2]; first compound 2.53 µM): 0.0513 | relative viability ([2]; first compound 8 µM): 0.0228 | relative viability ([3]; first compound 0.08 µM): 0.673 | relative viability ([3]; first compound 0.253 µM): 0.755 | relative viability ([3]; first compound 0.8 µM): 0.382 | relative viability ([3]; first compound 2.53 µM): 0.0404 | relative viability ([3]; first compound 8 µM): 0.0188 | relative viability (Obatoclax + Palbociclib; first compound 0.01 µM): 0.153 | relative viability (Obatoclax + Palbociclib; first compound 0.03162 µM): 0.14 | relative viability (Obatoclax + Palbociclib; first compound 0.1 µM): 0.201 | relative viability (Obatoclax + Palbociclib; first compound 0.3162 µM): 0.055 | relative viability (Obatoclax + Palbociclib; first compound 1 µM): 0.0295

NCI-H520
relative viability ([1]; first compound 0.08 µM): 0.655 | relative viability ([1]; first compound 0.253 µM): 0.62 | relative viability ([1]; first compound 0.8 µM): 0.603 | relative viability ([1]; first compound 2.53 µM): 0.23 | relative viability ([1]; first compound 8 µM): 0.172 | relative viability ([2]; first compound 0.08 µM): 0.643 | relative viability ([2]; first compound 0.253 µM): 0.688 | relative viability ([2]; first compound 0.8 µM): 0.322 | relative viability ([2]; first compound 2.53 µM): 0.14 | relative viability ([2]; first compound 8 µM): 0.0969 | relative viability ([3]; first compound 0.08 µM): 0.7 | relative viability ([3]; first compound 0.253 µM): 0.678 | relative viability ([3]; first compound 0.8 µM): 0.415 | relative viability ([3]; first compound 2.53 µM): 0.184 | relative viability ([3]; first compound 8 µM): 0.14 | relative viability (Obatoclax + Palbociclib; first compound 0.01 µM): 0.287 | relative viability (Obatoclax + Palbociclib; first compound 0.03162 µM): 0.23 | relative viability (Obatoclax + Palbociclib; first compound 0.1 µM): 0.331 | relative viability (Obatoclax + Palbociclib; first compound 0.3162 µM): 0.187 | relative viability (Obatoclax + Palbociclib; first compound 1 µM): 0.151

NCI-H522
relative viability ([1]; first compound 0.08 µM): 0.664 | relative viability ([1]; first compound 0.253 µM): 0.632 | relative viability ([1]; first compound 0.8 µM): 0.712 | relative viability ([1]; first compound 2.53 µM): 0.544 | relative viability ([1]; first compound 8 µM): 0.484 | relative viability ([2]; first compound 0.08 µM): 0.992 | relative viability ([2]; first compound 0.253 µM): 0.848 | relative viability ([2]; first compound 0.8 µM): 0.957 | relative viability ([2]; first compound 2.53 µM): 0.894 | relative viability ([2]; first compound 8 µM): 0.622 | relative viability ([3]; first compound 0.08 µM): 0.894 | relative viability ([3]; first compound 0.253 µM): 0.93 | relative viability ([3]; first compound 0.8 µM): 1.12 | relative viability ([3]; first compound 2.53 µM): 0.854 | relative viability ([3]; first compound 8 µM): 0.426 | relative viability (Obatoclax + Palbociclib; first compound 0.01 µM): 1.05 | relative viability (Obatoclax + Palbociclib; first compound 0.03162 µM): 1.04 | relative viability (Obatoclax + Palbociclib; first compound 0.1 µM): 1.03 | relative viability (Obatoclax + Palbociclib; first compound 0.3162 µM): 1.02 | relative viability (Obatoclax + Palbociclib; first compound 1 µM): 0.892

NCI-H647
relative viability ([1]; first compound 0.08 µM): 0.481 | relative viability ([1]; first compound 0.253 µM): 0.634 | relative viability ([1]; first compound 0.8 µM): 0.47 | relative viability ([1]; first compound 2.53 µM): 0.0675 | relative viability ([1]; first compound 8 µM): 0.0451 | relative viability ([2]; first compound 0.08 µM): 0.2 | relative viability ([2]; first compound 0.253 µM): 0.174 | relative viability ([2]; first compound 0.8 µM): 0.168 | relative viability ([2]; first compound 2.53 µM): 0.0748 | relative viability ([2]; first compound 8 µM): 0.0585 | relative viability ([3]; first compound 0.08 µM): 0.58 | relative viability ([3]; first compound 0.253 µM): 0.626 | relative viability ([3]; first compound 0.8 µM): 0.391 | relative viability ([3]; first compound 2.53 µM): 0.128 | relative viability ([3]; first compound 8 µM): 0.0534 | relative viability (Obatoclax + Palbociclib; first compound 0.01 µM): 0.458 | relative viability (Obatoclax + Palbociclib; first compound 0.03162 µM): 0.321 | relative viability (Obatoclax + Palbociclib; first compound 0.1 µM): 0.398 | relative viability (Obatoclax + Palbociclib; first compound 0.3162 µM): 0.151 | relative viability (Obatoclax + Palbociclib; first compound 1 µM): 0.0783

NCI-H661
relative viability ([1]; first compound 0.08 µM): 0.282 | relative viability ([1]; first compound 0.8 µM): 0.265 | relative viability ([1]; first compound 2.53 µM): 0.226 | relative viability ([1]; first compound 8 µM): 0.211 | relative viability ([2]; first compound 0.08 µM): 0.884 | relative viability ([2]; first compound 0.253 µM): 0.898 | relative viability ([2]; first compound 0.8 µM): 0.855 | relative viability ([2]; first compound 2.53 µM): 0.576 | relative viability ([2]; first compound 8 µM): 0.326 | relative viability ([3]; first compound 0.08 µM): 0.784 | relative viability ([3]; first compound 0.253 µM): 0.854 | relative viability ([3]; first compound 0.8 µM): 0.562 | relative viability ([3]; first compound 2.53 µM): 0.348 | relative viability ([3]; first compound 8 µM): 0.311 | relative viability (Obatoclax + Palbociclib; first compound 0.01 µM): 0.393 | relative viability (Obatoclax + Palbociclib; first compound 0.03162 µM): 0.397 | relative viability (Obatoclax + Palbociclib; first compound 0.1 µM): 0.465 | relative viability (Obatoclax + Palbociclib; first compound 0.3162 µM): 0.413 | relative viability (Obatoclax + Palbociclib; first compound 1 µM): 0.34

— the supplement of paper PMC10307832
